Molecular target: Aldehyde dehydrogenase (Saccharomyces cerevisiae)
Experiment: In vitro inhibition against yeast Aldehyde dehydrogenase

SMILES | IC50
O=C1c2ccccc2S(=O)(=O)N1O [2-Hydroxy-1,1-dioxo-1,2-dihydro-1lambda*6*-benzo[d]isothiazol-3-one] | > 1000 µM
CC(=O)ON1C(=O)c2ccccc2S1(=O)=O [Acetic acid 1,1,3-trioxo-1,3-dihydro-1lambda*6*-benzo[d]isothiazol-2-yl ester] | 240 µM
